Measured values reported in US6703365B2, “Glucagon-like insulinotropic peptides, compositions and methods” (Eli Lilly and Company, priority 1993, dated 2004).
Where “and” joins values, the source holds several entries; their conditions need not be identical. Identical values can stand only once. Like-named read-outs stand apart in the source and are kept apart here.

Columns and labels:
[1] = stored at 4° C.; cited from earlier work
[2] = Zinc complexation/precipitation of GLP-1 molecules, protein content of supernatant by 280 nm absorbance (Example 1); format: physicochemical; settings: 0.1M HEPES pH 7.4, about 0.1 mg/mL, 22° C., about 18 hours
Description: Individual aliquots of 5 different GLP-1 molecules were prepared by well-known, solid phase peptide synthesis and were lyophilized in small vials. Portions of 0.1M HEPES (N-[2-hydroxyethyl]piperazine-N′-[2-ethanesulfonic acid]) buffers at pH 7.4 containing various levels of zinc chloride were added to the aliquots to obtain a protein concentration of about 0.1 mg/mL. The samples were mixed and stored at ambient temperature (22° C.) for about 18 hours. The mixtures were then centrifuged (Fisher Model 235C micro-centrifuge) for 5 minutes. The clear supernatants were pipetted from the tubes. The protein content of the supernatants was estimated by measuring their absorbance at 280 nm in a spectrophotometer (Gilford 260). The theoretical absorbance value for a 0.1 mg/mL solution of the GLP-1 molecules at this wavelength in the 1 cm cuvettes is 0.207.

[3] = intravenous infusion, cited from earlier work
[4] = Zinc precipitation of GLP-1 (7-36)NH2, 280 nm absorbance and zinc by atomic absorption in supernatant and redissolved precipitate (Example 2); format: physicochemical
Description: 5 mg of GLP-1 (7-36)NH2 was completely dissolved in 2.5 ML of pH 7.4, zinc-free 0.1M HEPES buffer. An additional 2.5 mL of pH 7.4, 0.1M HEPES buffer containing 0.6 mM zinc chloride was quickly added. The approximate molar ratio of zinc to GLP-1 (7-36)NH2 in this sample is 1 to 1. The solution immediately became cloudy and precipitation soon formed. The mixture was stored at ambient temperature (22° C.) for 18 hours.
The precipitate became firmly attached to the bottom of the glass vial. The supernatant was completely decanted by pipette. The precipitate was then completely dissolved in 5.0 mL of 0.1N hydrochloric acid. The absorbance at 280 nm was determined for both the supernatant and redissolved precipitate solutions. The zinc levels in these solutions were quantitated by atomic absorption spectrophotometry.

[5] = Zn/GLP-1 molecule molar ratio 0, theoretical absorbance 0.207
[6] = Zn/GLP-1 molecule molar ratio 0.3
[7] = Zn/GLP-1 molecule molar ratio 0.5
[8] = Zn/GLP-1 molecule molar ratio 0.7
[9] = Zn/GLP-1 molecule molar ratio 1.0
[10] = Zn/GLP-1 molecule molar ratio 3.0
[11] = Patients With Maturity Onset Diabetes

| 280 nm Absorbance of supernatant [2, 5] | 280 nm Absorbance of supernatant [2, 6] | 280 nm Absorbance of supernatant [2, 7] | 280 nm Absorbance of supernatant [2, 8] | 280 nm Absorbance of supernatant [2, 9] | 280 nm Absorbance of supernatant [2, 10] | Substance | also measured |
| --- | --- | --- | --- | --- | --- | --- | --- |
| – | – | – | – | – | – | GLP-1 (7-37) | Time after sample preparation at which by-products were found [1]: eleven |
| 0.136 | 0.079 | 0.070 | 0.058 | 0.057 | 0.044 | Gly^8-GLP-1(7-36)NH2 [Gly^8-GLP-1 (7-36)NH2] | – |
| 0.167 | 0.113 | 0.082 | 0.069 | 0.065 | 0.055 | Gly^8-Gln^21-GLP-1(7-37)OH [Gly^8-Gln^21 GLP-1 (7-37)OH] | – |
| 0.163 | 0.134 | 0.098 | 0.079 | 0.076 | 0.055 | α-methly-Ala^8-GLP-1(7-36)NH2 [α-methyl-Ala^8-GLP-1 (7-36)NH2] | – |

| Substance | 280 nm Absorbance of supernatant [2, 5] | 280 nm Absorbance of supernatant [2, 6] | 280 nm Absorbance of supernatant [2, 7] | 280 nm Absorbance of supernatant [2, 8] | 280 nm Absorbance of supernatant [2, 9] | 280 nm Absorbance of supernatant [2, 10] | also measured |
| --- | --- | --- | --- | --- | --- | --- | --- |
| His^7-Ala-Glu-Gly^10-Thr-Phe-Thr-Ser-Asp15-Val-Ser-Ser-Tyr-Leu^20-Glu-Gly-Gln-Ala-Ala^25-Lys-Glu-Phe-Ile-Ala^30-Trp-Leu-Val-Lys-Gly^35-Arg-NH2 [GLP-1 (7-36)NH2] | 0.172 | 0.099 | 0.057 | 0.035 | 0.039 | 0.048 | Meal glycemia ([3]; Normal Subjects, twice normal serum concentrations): Unchanged; Endogenous insulin secretion in response to a meal ([3]; Normal Subjects): Unchanged; Free fatty acids ([3]; Normal Subjects): Reduced (3); Endogenous insulin secretion in response to a meal [3, 11]: Increased; Fasting glucagon [3, 11]: Reduced; Fasting glycemia [3, 11]: Reduced; Free fatty acids [3, 11]: Reduced (2); Meal glycemia [3, 11]: Reduced; Post-prandial glucagon [3, 11]: Reduced; Zinc Concentration in Parts per Million ([4]; Redissolved Precipitate (5 ml)): 13.3 Parts per Million; 280 nm Absorbance ([4]; Redissolved Precipitate (5 ml) in 0.1N hydrochloric acid): 1.932; Zinc Concentration in Parts per Million ([4]; Supernatant (5 ml)): 9.02 Parts per Million; 280 nm Absorbance ([4]; Supernatant (5 ml), zinc to peptide about 1 to 1, pH 7.4 HEPES, 22° C., 18 hours): 0.118; zinc concentration of the redissolved precipitate solution ([4]; equivalent of 13.3 parts per million): 203 µM; GLP-1 (7-36)NH2 concentration of the redissolved precipitate ([4]; from 280 nm absorbance 1.932): 0.933 mg/ml and 283 μM; molar ratio of zinc to GLP-1 (7-36)NH2 in the precipitate ([4]; ratio to 1): 0.717; precipitation from the solution when zinc-containing HEPES solution was added ([4]; zinc to peptide about 1 to 1, pH 7.4): most of the GLP-1 (7-36)NH2 precipitated from the solution |
| Val^8-GLP-1(7-37) OH [Val^8-GLP-1 (7-37)OH] | 0.187 | 0.191 | 0.184 | 0.180 | 0.173 | 0.110 | – |
